The results in this text go back to US10280165B2, “Pyridopyrimidinones and methods of use thereof” (Genentech, Inc., priority 2015, dated 2019).

One may read the EC50 as the midpoint of the concentration-response curve.

The assay has as its target HEK cells stably transfected with tetracycline inducible hNR1 and hNR2A (Homo sapiens (Human), UniProt Q05586+Q12879). Description: Assay 1: Cell-Based Assay (cytosolic calcium, positive allosteric modulation). The note with it: for Emax: HEK293, scaled relative to 100 μM L-glutamate maximal response (100%) and 0 μM L-glutamate (0%), with 30 μM glycine and 300 nM L-glutamate, read-out: Max %; for EC50: with 30 μM glycine and 300 nM L-glutamate (EC30), given for compounds reaching maximal response plateaus. As for the experimental part:
Assay 1: Cell-Based Assay
HEK cells stably transfected with tetracycline inducible hNR1 and hNR2A were seeded into clear bottom 384 well poly-D-lysine coated plates (2.5×10^4 cells per well) in Minimum Essential Media (MEM; without L-) including 7.5 μg mL doxycycline and 500 μM (+)-ketamine. The cells were incubated at 37° C. in 5% CO2 for 24 h. For measurement of changes in cytosolic calcium, the seeding media was removed and the cells incubated at 37° C. for 60 min with 1× Becton Dickinson Calcium Assay Kit reagent in Hanks Balanced Salt Solution (HBSS; w/o magnesium, including 1.8 mM calcium, 0.65 mg ml^−1 probenecid and 10 μM (+)-ketamine, pH 7.15) then allowed to equilibrate to rt for 30 min. Concentration-effect curves to Positive Allosteric Modulators (PAMs) were constructed by adding different concentrations (with 30 μM glycine and 300 nM L-glutamate (EC30)) to different wells in HBSS. Compounds were added after a 10 second baseline read and maximum level of relative fluorescence units (RFU) was measured over a 5 min period. Responses were scaled relative to 100 μM L-glutamate maximal response (100%) and 0 μM L-glutamate (0%). EC50 values are provided for compounds reaching maximal response plateaus, and the max % (EC50 (--)) only if no plateau was reached.
A four-parameter Hill equation was fitted to individual concentration-effect curves:
[formula] in which Y, S0, Sinf, AC50, n and c were effect, lower-asymptote, upper-asymptote, mid-point location, slope parameter, and concentration respectively.

Chain of HEK cells stably transfected with tetracycline inducible hNR1 and hNR2A (Q12879 23-1464, other chains not shown): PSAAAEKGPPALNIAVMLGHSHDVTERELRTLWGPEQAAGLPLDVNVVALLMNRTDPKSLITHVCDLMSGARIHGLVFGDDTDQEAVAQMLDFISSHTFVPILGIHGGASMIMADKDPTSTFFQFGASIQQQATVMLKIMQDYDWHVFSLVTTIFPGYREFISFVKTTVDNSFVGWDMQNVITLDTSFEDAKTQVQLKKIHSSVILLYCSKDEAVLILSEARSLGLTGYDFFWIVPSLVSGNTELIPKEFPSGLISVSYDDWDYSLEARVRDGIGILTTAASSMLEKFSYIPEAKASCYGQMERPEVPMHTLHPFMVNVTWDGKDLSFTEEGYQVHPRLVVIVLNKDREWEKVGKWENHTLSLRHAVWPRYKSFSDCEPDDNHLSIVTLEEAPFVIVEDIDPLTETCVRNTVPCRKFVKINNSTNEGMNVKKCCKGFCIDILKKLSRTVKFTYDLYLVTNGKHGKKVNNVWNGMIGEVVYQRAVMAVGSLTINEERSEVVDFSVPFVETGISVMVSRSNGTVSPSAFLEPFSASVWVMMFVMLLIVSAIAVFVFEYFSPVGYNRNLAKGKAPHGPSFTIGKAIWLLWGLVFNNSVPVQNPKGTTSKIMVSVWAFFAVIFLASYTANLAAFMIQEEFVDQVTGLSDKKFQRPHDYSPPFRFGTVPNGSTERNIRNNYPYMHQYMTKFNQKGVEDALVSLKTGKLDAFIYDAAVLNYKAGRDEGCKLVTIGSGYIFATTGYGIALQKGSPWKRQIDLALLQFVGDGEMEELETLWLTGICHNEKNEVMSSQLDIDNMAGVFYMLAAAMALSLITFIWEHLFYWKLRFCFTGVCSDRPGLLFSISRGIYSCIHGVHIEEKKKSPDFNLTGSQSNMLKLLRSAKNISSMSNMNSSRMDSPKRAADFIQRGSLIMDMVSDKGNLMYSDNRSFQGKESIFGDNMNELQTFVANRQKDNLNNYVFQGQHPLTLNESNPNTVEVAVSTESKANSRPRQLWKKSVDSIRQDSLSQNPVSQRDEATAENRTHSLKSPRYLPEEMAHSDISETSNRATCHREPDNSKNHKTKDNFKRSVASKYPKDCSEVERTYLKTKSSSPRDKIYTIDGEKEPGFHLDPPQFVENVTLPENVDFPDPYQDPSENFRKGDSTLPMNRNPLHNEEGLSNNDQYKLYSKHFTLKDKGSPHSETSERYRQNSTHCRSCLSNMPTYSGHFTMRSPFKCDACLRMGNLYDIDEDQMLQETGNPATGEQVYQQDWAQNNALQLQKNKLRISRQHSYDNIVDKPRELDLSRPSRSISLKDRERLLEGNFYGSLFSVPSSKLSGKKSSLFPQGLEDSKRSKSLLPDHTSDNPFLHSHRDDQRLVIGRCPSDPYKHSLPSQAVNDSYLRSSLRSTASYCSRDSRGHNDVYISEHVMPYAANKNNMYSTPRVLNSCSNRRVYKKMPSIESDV

For `Cc1cc([C@H]2C[C@@H]2C#N)n2c(=O)cc(Cn3nc(C(F)(F)F)cc3Cl)nc2c1` [Compound 39, (1S,2S)-2-[2-[[5-chloro-3-(trifluoromethyl)pyrazol-1-yl]methyl]-8-methyl-4-oxo-pyrido[1,2-a]pyrimidin-6-yl]cyclopropanecarbonitrile], the Emax was 120% and the EC50 was found to be 0.951 µM.

Take `N#C[C@@H]1C[C@H]1c1cc(C(F)(F)F)cc2nc(Cn3nc(C(F)(F)F)cc3Cl)cc(=O)n12` [Compound 56, (1R,2R)-2-(2-((5-chloro-3-(trifluoromethyl)-1H-pyrazol-1-yl)methyl)-4-oxo-8-(trifluoromethyl)-4H-pyrido[1,2-a]pyrimidin-6-yl)cyclopropanecarbonitrile]: the Emax is 142% and the EC50 was 0.123 µM.

On to `CCN(Cc1cc(=O)n2cc(C)ccc2n1)c1ccc(F)cc1` [Compound 4, 2-[(N-ethyl-4-fluoro-anilino)methyl]-7-methyl-pyrido[1,2-a]pyrimidin-4-one], for which the Emax worked out at 134% and the EC50 is 5.2 µM.

For `N#C[C@H]1C[C@@H]1c1cccc2nc(Cn3nc(C(F)(F)F)cc3Cl)cc(=O)n12` [Compound 41, (1S,2S)-2-[2-[[5-chloro-3-(trifluoromethyl)pyrazol-1-yl]methyl]-4-oxo-pyrido[1,2-a]pyrimidin-6-yl]cyclopropanecarbonitrile], the Emax came to 111% and the EC50 amounted to 2.9 µM.

In the case of `Cc1ccc2nc(CN(C)c3ccccc3)cc(=O)n2c1` [Compound 2, 7-methyl-2-[(N-methylanilino)methyl]pyrido[1,2-a]pyrimidin-4-one], the Emax came out at 75%.

On to `CCN(Cc1cc(=O)n2c(OC)c(C)ccc2n1)c1ccc(F)cc1` [Compound 10, 2-[(N-ethyl-4-fluoro-anilino)methyl]-6-methoxy-7-methyl-pyrido[1,2-a]pyrimidin-4-one], for which the Emax is 51%.

Turning to `Cc1cc([C@@H]2C[C@H]2C#N)n2c(=O)cc(Cn3nc(Cl)cc3Cl)nc2c1` [Compound 57, (1R,2R)-2-(2-((3,5-dichloro-1H-pyrazol-1-yl)methyl)-8-methyl-4-oxo-4H-pyrido[1,2-a]pyrimidin-6-yl)cyclopropanecarbonitrile], the Emax turned out to be 154% and the EC50 worked out at 0.222 µM.

In the case of `Cc1cc([C@@H]2C[C@H]2C#N)n2c(=O)cc(Cn3nc(C(F)(F)F)cc3Cl)nc2c1` [Compound 38, (1R,2R)-2-(2-[[5-chloro-3-(trifluoromethyl)pyrazol-1-yl]methyl]-8-methyl-4-oxo-pyrido[1,2-a]pyrimidin-6-yl]cyclopropanecarbonitrile], the Emax was 144% and the EC50 is 0.039 µM.

In the case of `CCNC(=O)c1cccc2nc(Cn3nc(C(F)(F)F)cc3C3CC3)cc(=O)n12` [Compound 20, 2-[[5-cyclopropyl-3-(trifluoromethyl)pyrazol-1-yl]methyl]-N-ethyl-4-oxo-pyrido[1,2-a]pyrimidine-6-carboxamide], the Emax is 116% and the EC50 was determined as 7.4 µM.

For the compound `CC(=O)c1c(C)ccc2nc(Cn3nc(Cl)cc3C(F)(F)F)cc(=O)n12` [Compound 51, 6-acetyl-2-[[3-chloro-5-(trifluoromethyl)pyrazol-1-yl]methyl]-7-methyl-pyrido[1,2-a]pyrimidin-4-one], the Emax was 114% and the EC50 came out at 9.1 µM.

Turning to `CC(=O)c1c(C)ccc2nc(Cn3nc(C(F)(F)F)cc3Cl)cc(=O)n12` [Compound 50, 6-acetyl-2-[[5-chloro-3-(trifluoromethyl)pyrazol-1-yl]methyl]-7-methyl-pyrido[1,2-a]pyrimidin-4-one], the Emax was determined as 124% and the EC50 was determined as 7.7 µM.

Consider `CNC(=O)c1c(C)ccc2nc(Cn3nc(C4CC4)cc3C(F)(F)F)cc(=O)n12` [Compound 30, 2-[[3-cyclopropyl-5-(trifluoromethyl)pyrazol-1-yl]methyl]-N,7-dimethyl-4-oxo-pyrido[1,2-a]pyrimidine-6-carboxamide], for which the Emax worked out at 101%.

For the compound `CNC(=O)c1c(C)ccc2nc(Cn3nc(C(F)(F)F)cc3C3CC3)cc(=O)n12` [Compound 29, 2-[[5-cyclopropyl-3-(trifluoromethyl)pyrazol-1-yl]methyl]-N,7-dimethyl-4-oxo-pyrido[1,2-a]pyrimidine-6-carboxamide], the Emax is 147% and the concentration giving a half-maximal response (EC50) came to 5.9 µM.

For the compound `CCN(Cc1cc(=O)n2c(-c3ccco3)cccc2n1)c1ccc(F)cc1` [Compound 13, 2-[(N-ethyl-4-fluoro-anilino)methyl]-6-(2-furyl)pyrido[1,2-a]pyrimidin-4-one], the Emax came out at 172% and the EC50 stood at 0.371 µM.

For the compound `CCc1cccc2nc(CN(CC)c3ccc(F)cc3)cc(=O)n12` [Compound 5, 6-ethyl-2-[(N-ethyl-4-fluoro-anilino)methyl]pyrido[1,2-a]pyrimidin-4-one], the Emax turned out to be 134% and the half-maximal effective concentration (EC50) stood at 6.4 µM.

Turning to `CCNC(=O)c1c(C)ccc2nc(Cc3cccc(C#N)c3F)cc(=O)n12` [Compound 19, 2-[(3-cyano-2-fluoro-phenyl)methyl]-N-ethyl-7-methyl-4-oxo-pyrido[1,2-a]pyrimidine-6-carboxamide], the Emax is 65%.

Turning to `CCOc1c(C)ccc2nc(CN(CC)c3ccc(F)cc3)cc(=O)n12` [Compound 11, 6-ethoxy-2-[(N-ethyl-4-fluoro-anilino)methyl]-7-methyl-pyrido[1,2-a]pyrimidin-4-one], the Emax came out at 53%.

Regarding `Cc1ccc2nc(Cn3nc(C(F)(F)F)cc3Cl)cc(=O)n2c1[C@@H]1C[C@H]1CO` [Compound 36, 2-[[5-chloro-3-(trifluoromethyl)pyrazol-1-yl]methyl]-6-[(1R,2R)-2-(hydroxymethyl)cyclopropyl]-7-methyl-pyrido[1,2-a]pyrimidin-4-one], the Emax was found to be 135% and the EC50 turned out to be 0.126 µM.

Take `CCN(Cc1cc(=O)n2c(Br)cccc2n1)c1ccc(F)cc1` [Compound 15, 6-bromo-2-[(N-ethyl-4-fluoro-anilino)methyl]pyrido[1,2-a]pyrimidin-4-one]: the Emax was found to be 159% and the EC50 was 6.2 µM.

Regarding `CCN(Cc1cc(=O)n2c(C#N)cccc2n1)c1ccc(F)cc1` [Compound 14, 2-[(N-ethyl-4-fluoro-anilino)methyl]-4-oxo-pyrido[1,2-a]pyrimidine-6-carbonitrile], the Emax was determined as 163% and the EC50 was 5.8 µM.

In the case of `CCN(Cc1cc(=O)n2cc(C)ccc2n1)c1ccccc1` [Compound 3, 2-[(N-ethylanilino)methyl]-7-methyl-pyrido[1,2-a]pyrimidin-4-one], the Emax came out at 122% and the half-maximal effective concentration (EC50) came out at 11.1 µM.

With `CNC(=O)c1c(C)ccc2nc(Cc3cccc(Cl)c3F)c(F)c(=O)n12` [Compound 31, 2-[(3-chloro-2-fluoro-phenyl)methyl]-3-fluoro-N,7-dimethyl-4-oxo-pyrido[1,2-a]pyrimidine-6-carboxamide], the Emax was 48%.

For the compound `CCc1cccc2nc(CN(CC)c3ccccc3)cc(=O)n12` [Compound 6, 6-ethyl-2-[(N-ethylanilino)methyl]pyrido[1,2-a]pyrimidin-4-one], the Emax is 138% and the EC50 came out at 11.5 µM.

With `CNC(=O)c1c(C)ccc2nc(Cc3cccc(C#N)c3F)c(F)c(=O)n12` [Compound 26, 2-[(3-cyano-2-fluoro-phenyl)methyl]-3-fluoro-N,7-dimethyl-4-oxo-pyrido[1,2-a]pyrimidine-6-carboxamide], the Emax was 34%.
